In the supplement of paper PMC10307832:

Tests used:
Assay in all cases: relative viability (nuclei count vs DMSO), 5 days (fraction); higher = more cells survive
CAL-12T = system: CAL-12T
Summary of the method: (§1)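 Lung cancer cell lines in 1536-well plates got either a single drug or a fixed anchor-drug dose together with five library-drug doses (not always all listed) in √10 steps, by pin tool, on the day after seeding. Nuclei were counted after 5 days, and relative viability is the treated-to-vehicle ratio of nuclei counts. Values are medians of duplicate plates.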

NCI-H1734 = system: NCI-H1734
Summary of the method: as §1

H3255 = system: H3255
Summary of the method: as §1

NCI-H1563 = system: NCI-H1563
Summary of the method: as §1

NCI-H1355 = system: NCI-H1355
Summary of the method: as §1

NCI-H1975 = system: NCI-H1975
Summary of the method: as §1

PC-3 [JPC-3] = system: PC-3 [JPC-3]
Summary of the method: as §1

NCI-H322M = system: NCI-H322M
Summary of the method: as §1

EKVX = system: EKVX
Summary of the method: as §1

HCC-827 = system: HCC-827
Summary of the method: as §1

HCC-15 = system: HCC-15
Summary of the method: as §1

NCI-H1650 = system: NCI-H1650
Summary of the method: as §1

NCI-H2228 = system: NCI-H2228
Summary of the method: as §1

NCI-H661 = system: NCI-H661
Summary of the method: as §1

NCI-H2342 = system: NCI-H2342
Summary of the method: as §1

LCLC-97TM1 = system: LCLC-97TM1
Summary of the method: as §1

LK-2 = system: LK-2
Summary of the method: as §1

RERF-LC-KJ = system: RERF-LC-KJ
Summary of the method: as §1

NCI-H1755 = system: NCI-H1755
Summary of the method: as §1

NCI-H520 = system: NCI-H520
Summary of the method: as §1

NCI-H2405 = system: NCI-H2405
Summary of the method: as §1

PC-14 = system: PC-14
Summary of the method: as §1

Compound: COc1nc(C)cnc1NS(=O)(=O)c1cccnc1-c1ccc(-c2nnco2)cc1 [Zibotentan] + N=C(N)NC(=N)NCCc1ccccc1 [Phenformin] (partner 250 µM)
- relative viability (CAL-12T; first compound 0.08 µM): 0.602
- relative viability (CAL-12T; first compound 0.253 µM): 0.482
- relative viability (CAL-12T; first compound 0.8 µM): 0.554
- relative viability (CAL-12T; first compound 2.53 µM): 0.609
- relative viability (NCI-H1734; first compound 0.08 µM): 0.361
- relative viability (NCI-H1734; first compound 0.253 µM): 0.396
- relative viability (NCI-H1734; first compound 0.8 µM): 0.381
- relative viability (NCI-H1734; first compound 2.53 µM): 0.492
- relative viability (H3255; first compound 0.08 µM): 0.386
- relative viability (H3255; first compound 0.253 µM): 0.326
- relative viability (H3255; first compound 0.8 µM): 0.307
- relative viability (H3255; first compound 2.53 µM): 0.354
- relative viability (NCI-H1563; first compound 0.08 µM): 0.67
- relative viability (NCI-H1563; first compound 0.8 µM): 0.66
- relative viability (NCI-H1563; first compound 2.53 µM): 0.643
- relative viability (NCI-H1355; first compound 0.08 µM): 0.465
- relative viability (NCI-H1355; first compound 0.253 µM): 0.414
- relative viability (NCI-H1355; first compound 0.8 µM): 0.449
- relative viability (NCI-H1355; first compound 2.53 µM): 0.491
- relative viability (NCI-H1975; first compound 0.08 µM): 0.428
- relative viability (NCI-H1975; first compound 0.253 µM): 0.398
- relative viability (NCI-H1975; first compound 0.8 µM): 0.419
- relative viability (NCI-H1975; first compound 2.53 µM): 0.413
- relative viability (PC-3 [JPC-3]; first compound 0.08 µM): 0.459
- relative viability (PC-3 [JPC-3]; first compound 0.253 µM): 0.466
- relative viability (PC-3 [JPC-3]; first compound 0.8 µM): 0.474
- relative viability (PC-3 [JPC-3]; first compound 2.53 µM): 0.499
- relative viability (NCI-H322M; first compound 0.08 µM): 0.824
- relative viability (NCI-H322M; first compound 0.253 µM): 0.589
- relative viability (NCI-H322M; first compound 0.8 µM): 0.831
- relative viability (NCI-H322M; first compound 2.53 µM): 0.816
- relative viability (EKVX; first compound 0.08 µM): 0.242
- relative viability (EKVX; first compound 0.253 µM): 0.238
- relative viability (EKVX; first compound 0.8 µM): 0.249
- relative viability (EKVX; first compound 2.53 µM): 0.245
- relative viability (HCC-827; first compound 0.08 µM): 0.429
- relative viability (HCC-827; first compound 0.253 µM): 0.399
- relative viability (HCC-827; first compound 0.8 µM): 0.387
- relative viability (HCC-827; first compound 2.53 µM): 0.421
- relative viability (HCC-15; first compound 0.08 µM): 0.524
- relative viability (HCC-15; first compound 0.8 µM): 0.493
- relative viability (HCC-15; first compound 2.53 µM): 0.451
- relative viability (NCI-H1650; first compound 0.08 µM): 0.454
- relative viability (NCI-H1650; first compound 0.8 µM): 0.516
- relative viability (NCI-H1650; first compound 2.53 µM): 0.428
- relative viability (NCI-H2228; first compound 0.08 µM): 0.324
- relative viability (NCI-H2228; first compound 0.253 µM): 0.314
- relative viability (NCI-H2228; first compound 0.8 µM): 0.444
- relative viability (NCI-H2228; first compound 2.53 µM): 0.415
- relative viability (NCI-H661; first compound 0.08 µM): 0.267
- relative viability (NCI-H661; first compound 0.253 µM): 0.252
- relative viability (NCI-H661; first compound 0.8 µM): 0.281
- relative viability (NCI-H661; first compound 2.53 µM): 0.296
- relative viability (NCI-H2342; first compound 0.08 µM): 0.782
- relative viability (NCI-H2342; first compound 0.253 µM): 0.595
- relative viability (NCI-H2342; first compound 0.8 µM): 0.603
- relative viability (NCI-H2342; first compound 2.53 µM): 0.559
- relative viability (LCLC-97TM1; first compound 0.08 µM): 0.457
- relative viability (LCLC-97TM1; first compound 0.253 µM): 0.449
- relative viability (LCLC-97TM1; first compound 0.8 µM): 0.464
- relative viability (LCLC-97TM1; first compound 2.53 µM): 0.465
- relative viability (LK-2; first compound 0.08 µM): 0.354
- relative viability (LK-2; first compound 0.253 µM): 0.403
- relative viability (LK-2; first compound 0.8 µM): 0.467
- relative viability (LK-2; first compound 2.53 µM): 0.59
- relative viability (RERF-LC-KJ; first compound 0.08 µM): 0.423
- relative viability (RERF-LC-KJ; first compound 0.8 µM): 0.418
- relative viability (RERF-LC-KJ; first compound 2.53 µM): 0.447
- relative viability (NCI-H1755; first compound 0.08 µM): 0.658
- relative viability (NCI-H1755; first compound 0.253 µM): 0.636
- relative viability (NCI-H1755; first compound 0.8 µM): 0.599
- relative viability (NCI-H1755; first compound 2.53 µM): 0.703
- relative viability (NCI-H520; first compound 0.08 µM): 0.726
- relative viability (NCI-H520; first compound 0.253 µM): 0.58
- relative viability (NCI-H520; first compound 0.8 µM): 0.519
- relative viability (NCI-H520; first compound 2.53 µM): 0.581
- relative viability (NCI-H2405; first compound 0.08 µM): 0.422
- relative viability (NCI-H2405; first compound 0.253 µM): 0.39
- relative viability (NCI-H2405; first compound 0.8 µM): 0.436
- relative viability (NCI-H2405; first compound 2.53 µM): 0.439
- relative viability (PC-14; first compound 0.08 µM): 0.692
- relative viability (PC-14; first compound 0.253 µM): 0.377
- relative viability (PC-14; first compound 0.8 µM): 0.66
- relative viability (PC-14; first compound 2.53 µM): 0.601
